According to patent US6737383B1, “Herbicidal oxadiazolidines” (priority 1999, dated 2004):

Assays:
crabgrass = assay: Test B pre/postemergence crabgrass; format: in vivo, Digitaria sanguinalis
Method in brief: (§1)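 Herbicidal effect was estimated by eye on a ten-point control scale after plants spent twelve to sixteen days in a greenhouse following soil or foliar treatment. Foliar sprays targeted plants at one to four leaves; all doses were formulated in a non-phytotoxic solvent with surfactant.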

purple nutsedge = assay: Test B pre/postemergence purple nutsedge; format: in vivo, Cyperus rotundus
Method in brief: as §1

duck salad = assay: Test B flood test duck salad; format: in vivo, Heteranthera limosa; conditions: Pre-emergence
Method in brief: (§2)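 Flood test on plants grown to the 2-leaf stage; treated plants kept in greenhouse twelve to sixteen days, then visually rated against controls on a 0 (no effect) to 10 (complete control) scale.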

bamyardgrass = assay: Test B flood test barnyardgrass; format: in vivo, Echinochloa crus-galli; conditions: Pre-emergence
Method in brief: as §2

[1] = Preemergence, Rate 62 g/ha, scale of 0 to 10 where 0 is no effect and 10 is complete control
[2] = Preemergence, Rate 250 g/ha, scale of 0 to 10 where 0 is no effect and 10 is complete control
[3] = Preemergence, Rate 500 g/ha, scale of 0 to 10 where 0 is no effect and 10 is complete control
[4] = Rate 62 g/ha, Postemergence, scale 0 to 10, 0 no effect, 10 complete control
[5] = Rate 125 g/ha, Postemergence, scale of 0 to 10 where 0 is no effect and 10 is complete control
[6] = Rate 250 g/ha, Postemergence, scale of 0 to 10 where 0 is no effect and 10 is complete control
[7] = Rate 1000 g/ha, scale 0 to 10 (0 no effect, 10 complete control)
[8] = Rate 125 g/ha, flood test species, scale 0 to 10 where 0 is no effect and 10 is complete control
[9] = Rate 250 g/ha, flood-test species, scale 0 to 10, 0 is no effect, 10 is complete control
[10] = Rate 500 g/ha, flood test species, scale 0 to 10 (0 no effect, 10 complete control)
[11] = Rate 500 g/ha, Postemergence, scale 0 to 10, 0 no effect, 10 complete control
[12] = Postemergence, Rate 125 g/ha, scale 0 to 10, 0 is no effect, 10 is complete control

Structure (SMILES) | Crabgrass plant response rating (crabgrass; [1]) | Crabgrass plant response rating (0 to 10 scale) (crabgrass; Preemergence, Rate 125 g/ha) | Crabgrass plant response rating (crabgrass; [2]) | Crabgrass plant response rating (crabgrass; [3]) | Crabgrass plant response rating (crabgrass; [4]) | Crabgrass plant response rating (crabgrass; [5]) | Plant response rating, Crabgrass (crabgrass; [6]) | Nutsedge plant response rating (purple nutsedge; [1]) | Nutsedge plant response rating (0 to 10 scale) (purple nutsedge; Preemergence, Rate 125 g/ha) | Nutsedge plant response rating (purple nutsedge; [2]) | Nutsedge plant response rating (purple nutsedge; [3]) | Nutsedge plant response rating (purple nutsedge; [4]) | Nutsedge plant response rating (purple nutsedge; [5]) | Plant response rating, Nutsedge (purple nutsedge; [6]) | Ducksalad plant response rating (duck salad; [7]) | Ducksalad plant response rating (duck salad; [8]) | Ducksalad plant response rating (duck salad; [9]) | Barnyardgrass plant response rating (bamyardgrass; [7]) | Barnyardgrass plant response rating (bamyardgrass; [8]) | Barnyardgrass plant response rating (bamyardgrass; [9]) | also measured
Cc1ccccc1-n1c(=O)on(C(=O)N(c2ccc3ccccc3c2)C(C)C)c1=O [Compound 306] | 0 | 0 | 0 | 0 | 0 | 0 | 0 | 0 | 0 | 0 | 0 | 0 | 0 | 0 | 0 | 0 | 0 | 0 | 0 | 0 | Ducksalad plant response rating (duck salad; [10]): 0; Barnyardgrass plant response rating (bamyardgrass; [10]): 0
CC(C)N(C(=O)n1oc(=O)n(CC2CCCC2)c1=O)c1ccc(F)cc1 [Compound 322] | 1 | 2 | 5 | 7 | 0 | 0 | 2 | 0 | 0 | 0 | 0 | 0 | 0 | 0 | 0 | 0 | 0 | 9 | 3 | 7 | Plant response rating, Crabgrass (crabgrass; [11]): 5; Plant response rating, Nutsedge (purple nutsedge; [11]): 0
CC(C)N(C(=O)n1oc(=O)n(-c2ccc3ccccc3c2)c1=O)c1ccccc1 [Compound 332] | 0 | 0 | 3 | 5 | 0 |  |  | 0 | 0 | 0 | 0 | 0 |  |  | 0 | 0 | 0 | 0 | 0 | 0 | Plant response rating, Crabgrass (crabgrass; [12]): 1; Plant response rating, Crabgrass (crabgrass; [11]): 3; Plant response rating, Nutsedge (purple nutsedge; [12]): 0; Plant response rating, Nutsedge (purple nutsedge; [11]): 0; Ducksalad plant response rating (duck salad; [10]): 0; Barnyardgrass plant response rating (bamyardgrass; [10]): 0
